≈ marks a conversion by molar mass, not a printed value. Like-named read-outs stand apart in the source and are kept apart here. Where a SMILES comes first, the peptide text is derived from it. [ ]: non-standard residue; d: D form.
Assays:
MDRPA 2003 = assay type: cell-based, Pseudomonas aeruginosa
How it was run: (§1)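 Peptides were serially diluted twofold in Mueller-Hinton medium and combined 1:1 with bacterial suspensions prepared at 2×10^6 CFU. Readout was the minimal inhibitory concentration, i.e. the lowest concentration with no growth.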

E. coli = assay type: cell-based, Escherichia coli; settings: E. coli
How it was run: (§2)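 Strains in MH medium at 2×10^6 CFU/ml were mixed with peptide diluted stepwise (2:1) from its MIC, then antibiotic dilutions in MH medium were added to give the antibiotic MIC. The reversed set-up, peptide titrated against fixed antibiotic, gave the peptide MIC.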

MDREC 1229 [1] = assay type: cell-based, Escherichia coli
How it was run: as §2

P. aeruginosa = test: microbe, parasite or virus in culture; assay type: cell-based, Pseudomonas aeruginosa
How it was run: as §1

A. baumannii [2] = test: MIC of antibiotic during combined treatment with antimicrobial peptide; assay type: cell-based, Acinetobacter baumannii; settings: for Antibiotic MIC, Erythromycin / Antibiotic MIC, Linezolid / Antibiotic MIC, Vancomycin: A. baumannii
How it was run: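 Read-out is the MIC of each combined solution, obtained from MH-medium dilutions of antibiotic added well by well, with a reversed-condition run as well.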

MDRAB 12036 = assay type: cell-based, Acinetobacter baumannii
How it was run: as §1

MDREC 1238 = assay type: cell-based, Escherichia coli
How it was run: as §1

S. epidermidis = test: microbe, parasite or virus in culture; assay type: cell-based, Staphylococcus epidermidis
How it was run: as §1

MDRAB 12035 [3] = test: MIC of antibiotic during combined treatment with antimicrobial peptide; assay type: cell-based, Acinetobacter baumannii
How it was run: as §2

MDREC 1229 [4] = test: as above; assay type: cell-based, Escherichia coli
How it was run: as §2

MDRST 8009 = assay type: cell-based, Salmonella typhimurium; settings: agent alone
How it was run: as §1

A. baumannii [5] = test: MIC of antimicrobial peptide during combined treatment with antibiotic; assay type: cell-based, Acinetobacter baumannii
How it was run: as §2

MDRAB 12035 [6] = test: as above; assay type: cell-based, Acinetobacter baumannii
How it was run: as §2

[7] = linezolid 64 μg/ml (Conc./MIC 1/8)
[8] = linezolid 512 μg/ml (Conc./MIC 1)
[9] = vancomycin 512 μg/ml (Conc./MIC 1/2)
[10] = vancomycin 1024 μg/ml (Conc./MIC 1)
[11] = combined with peptide at 1 μg/ml
[12] = combined with peptide at 2 μg/ml
[13] = combined with peptide at 4 μg/ml
[14] = combined with peptide at 6 μg/ml
[15] = combined with peptide at 8 μg/ml
[16] = combined with peptide at 16 μg/ml
[17] = combined with peptide at 32 μg/ml
[18] = combined with peptide at 64 μg/ml
[19] = peptide treatment concentration 1 μg/ml
[20] = peptide treatment concentration 2 μg/ml
[21] = peptide treatment concentration 4 μg/ml
[22] = peptide treatment concentration 6 μg/ml
[23] = peptide treatment concentration 8 μg/ml
[24] = peptide treatment concentration 16 μg/ml
[25] = peptide treatment concentration 32 μg/ml
[26] = peptide treatment concentration 64 μg/ml
[27] = erythromycin 4 μg/ml (Conc./MIC 1/8)
[28] = erythromycin 8 μg/ml (Conc./MIC 1/4)
[29] = erythromycin 16 μg/ml (Conc./MIC 1/2)
[30] = erythromycin 32 μg/ml (Conc./MIC 1)

## CC[C@H](C)[C@H](NC(=O)[C@H](CCCCN)NC(=O)[C@H](Cc1c[nH]c2ccccc12)NC(=O)[C@@H](N)CCCNC(=N)N)C(=O)N[C@@H](Cc1ccccc1)C(=O)N[C@@H](CCCCN)C(=O)N[C@@H](CCCCN)C(=O)N[C@H](C(=O)N[C@H](CC(C)C)C(=O)N[C@@H](CCCCN)C(=O)N[C@@H](CC(C)C)C(=O)N[C@@H](CC(C)C)C(=O)N[C@@H](Cc1c[nH]cn1)C(=O)N[C@@H](CCC(=O)O)C(=O)N[C@@H](Cc1ccccc1)C(=O)N[C@@H](CCCCN)C(=O)N[C@@H](CCCCN)C(=O)N[C@@H](Cc1ccccc1)C(N)=O)[C@@H](C)CC [PapMA-23, RWK IFK KIl KLL HEF KKF-NH2] (H-RWKIFKKI[dL]KLLHEFKKF-NH2; N-terminus assumed)
MDRPA 2003
  Minimal inhibitory concentration MIC: 64 µg/mL (≈ 26.6 µM)
E. coli; with Erythromycin […] (Conc./MIC 1)
  Peptide MIC: 0 µg/mL
E. coli; with Linezolid […] (Conc./MIC 1)
  Peptide MIC: 0 µg/mL
E. coli; with Vancomycin 1024 μg/ml (Conc./MIC 1)
  Peptide MIC: 0 µg/mL
MDREC 1229 [1]; erythromycin 32 μg/ml (Conc./MIC 1/8)
  Peptide MIC during treatment with antibiotic: 4 µg/mL
MDREC 1229 [1]; erythromycin 64 μg/ml (Conc./MIC 1/4)
  Peptide MIC during treatment with antibiotic: 2 µg/mL
MDREC 1229 [1]; erythromycin […] (Conc./MIC 1)
  Peptide MIC during treatment with antibiotic: 0 µg/mL
MDREC 1229 [1]; erythromycin […] (Conc./MIC 1/2)
  Peptide MIC during treatment with antibiotic: 1 µg/mL
MDREC 1229 [1]; [7]
  Peptide MIC during treatment with antibiotic: 4 µg/mL
MDREC 1229 [1]; [8]
  Peptide MIC during treatment with antibiotic: 0 µg/mL
MDREC 1229 [1]; linezolid […] (Conc./MIC 1/2)
  Peptide MIC during treatment with antibiotic: 1 µg/mL
MDREC 1229 [1]; linezolid […] (Conc./MIC 1/4)
  Peptide MIC during treatment with antibiotic: 2 µg/mL
MDREC 1229 [1]; [9]
  Peptide MIC during treatment with antibiotic: 2 µg/mL
MDREC 1229 [1]; [10]
  Peptide MIC during treatment with antibiotic: 1 µg/mL
MDREC 1229 [1]; vancomycin […] (Conc./MIC 1/4)
  Peptide MIC during treatment with antibiotic: 4 µg/mL
MDREC 1229 [1]; vancomycin […] (Conc./MIC 1/8)
  Peptide MIC during treatment with antibiotic: 8 µg/mL
P. aeruginosa
  Minimal inhibitory concentration MIC: 64 µg/mL (≈ 26.6 µM)
A. baumannii [2]; A. baumannii and MDRAB 12035
  Synergistic effect of antibacterial activity with existing antibiotics compared with PapMA-1: level similar to that of PapMA-1 peptide
A. baumannii [2]; [11]
  Antibiotic MIC, Erythromycin: 32 µg/mL
  Antibiotic MIC, Linezolid: >128 µg/mL
  Antibiotic MIC, Vancomycin: >128 µg/mL
A. baumannii [2]; [12]
  Antibiotic MIC, Erythromycin: 32 µg/mL
  Antibiotic MIC, Linezolid: >128 µg/mL
  Antibiotic MIC, Vancomycin: >128 µg/mL
A. baumannii [2]; [13]
  Antibiotic MIC, Erythromycin: 8 µg/mL
  Antibiotic MIC, Linezolid: 64 µg/mL
  Antibiotic MIC, Vancomycin: 64 µg/mL
A. baumannii [2]; [14]
  Antibiotic MIC, Erythromycin: 4 µg/mL
  Antibiotic MIC, Linezolid: 16 µg/mL
  Antibiotic MIC, Vancomycin: 32 µg/mL
A. baumannii [2]; [15]
  Antibiotic MIC, Erythromycin: 0.5 µg/mL
  Antibiotic MIC, Linezolid: 4 µg/mL
  Antibiotic MIC, Vancomycin: 8 µg/mL
A. baumannii [2]; [16]
  Antibiotic MIC, Erythromycin: 0.25 µg/mL
  Antibiotic MIC, Linezolid: 2 µg/mL
  Antibiotic MIC, Vancomycin: 4 µg/mL
A. baumannii [2]; [17]
  Antibiotic MIC, Erythromycin: 0 µg/mL
  Antibiotic MIC, Linezolid: 0 µg/mL
  Antibiotic MIC, Vancomycin: 0 µg/mL
A. baumannii [2]; [18]
  Antibiotic MIC, Erythromycin: 0 µg/mL
  Antibiotic MIC, Linezolid: 0 µg/mL
  Antibiotic MIC, Vancomycin: 0 µg/mL
MDRAB 12036
  Minimal inhibitory concentration MIC: 32 µg/mL (≈ 13.3 µM)
MDREC 1238
  Minimal inhibitory concentration MIC: 32 µg/mL (≈ 13.3 µM)
S. epidermidis
  Minimal inhibitory concentration MIC: >128 µg/mL
MDRAB 12035 [3]; [19]
  Erythromycin MIC during combined treatment with peptide: 32 µg/mL
  Linezolid MIC during combined treatment with peptide: >128 µg/mL
  Vancomycin MIC during combined treatment with peptide: >128 µg/mL
MDRAB 12035 [3]; [20]
  Erythromycin MIC during combined treatment with peptide: 32 µg/mL
  Linezolid MIC during combined treatment with peptide: >128 µg/mL
  Vancomycin MIC during combined treatment with peptide: >128 µg/mL
MDRAB 12035 [3]; [21]
  Erythromycin MIC during combined treatment with peptide: 16 µg/mL
  Linezolid MIC during combined treatment with peptide: 64 µg/mL
  Vancomycin MIC during combined treatment with peptide: 128 µg/mL
MDRAB 12035 [3]; [22]
  Erythromycin MIC during combined treatment with peptide: 4 µg/mL
  Linezolid MIC during combined treatment with peptide: 32 µg/mL
  Vancomycin MIC during combined treatment with peptide: 32 µg/mL
MDRAB 12035 [3]; [23]
  Erythromycin MIC during combined treatment with peptide: 1 µg/mL
  Linezolid MIC during combined treatment with peptide: 16 µg/mL
  Vancomycin MIC during combined treatment with peptide: 16 µg/mL
MDRAB 12035 [3]; [24]
  Erythromycin MIC during combined treatment with peptide: 0.25 µg/mL
  Linezolid MIC during combined treatment with peptide: 4 µg/mL
  Vancomycin MIC during combined treatment with peptide: 8 µg/mL
MDRAB 12035 [3]; [25]
  Erythromycin MIC during combined treatment with peptide: 0 µg/mL
  Linezolid MIC during combined treatment with peptide: 0 µg/mL
  Vancomycin MIC during combined treatment with peptide: 0 µg/mL
MDRAB 12035 [3]; [26]
  Erythromycin MIC during combined treatment with peptide: 0 µg/mL
  Linezolid MIC during combined treatment with peptide: 0 µg/mL
  Vancomycin MIC during combined treatment with peptide: 0 µg/mL
MDREC 1229 [4]; [19]
  Antibiotic MIC, Erythromycin: 128 µg/mL
  Antibiotic MIC, Linezolid: >128 µg/mL
  Antibiotic MIC, Vancomycin: >128 µg/mL
MDREC 1229 [4]; [20]
  Antibiotic MIC, Erythromycin: 64 µg/mL
  Antibiotic MIC, Linezolid: 128 µg/mL
  Antibiotic MIC, Vancomycin: >128 µg/mL
MDREC 1229 [4]; [21]
  Antibiotic MIC, Erythromycin: 32 µg/mL
  Antibiotic MIC, Linezolid: 64 µg/mL
  Antibiotic MIC, Vancomycin: >128 µg/mL
MDREC 1229 [4]; [22]
  Antibiotic MIC, Erythromycin: 8 µg/mL
  Antibiotic MIC, Linezolid: 32 µg/mL
  Antibiotic MIC, Vancomycin: 128 µg/mL
MDREC 1229 [4]; [23]
  Antibiotic MIC, Erythromycin: 4 µg/mL
  Antibiotic MIC, Linezolid: 32 µg/mL
  Antibiotic MIC, Vancomycin: 32 µg/mL
MDREC 1229 [4]; [24]
  Antibiotic MIC, Erythromycin: 1 µg/mL
  Antibiotic MIC, Linezolid: 16 µg/mL
  Antibiotic MIC, Vancomycin: 16 µg/mL
MDREC 1229 [4]; [25]
  Antibiotic MIC, Erythromycin: 0 µg/mL
  Antibiotic MIC, Linezolid: 0 µg/mL
  Antibiotic MIC, Vancomycin: 0 µg/mL
MDREC 1229 [4]; [26]
  Antibiotic MIC, Erythromycin: 0 µg/mL
  Antibiotic MIC, Linezolid: 0 µg/mL
  Antibiotic MIC, Vancomycin: 0 µg/mL
MDRST 8009
  Minimal inhibitory concentration MIC: 32 µg/mL (≈ 13.3 µM)
A. baumannii [5]; [27]
  Peptide MIC during treatment with erythromycin: 8 µg/mL
A. baumannii [5]; [28]
  Peptide MIC during treatment with erythromycin: 4 µg/mL
A. baumannii [5]; [29]
  Peptide MIC during treatment with erythromycin: 4 µg/mL
A. baumannii [5]; [30]
  Peptide MIC during treatment with erythromycin: 0 µg/mL
A. baumannii [5]; linezolid 32 μg/ml (Conc./MIC 1/8)
  Peptide MIC during treatment with linezolid: 8 µg/mL
A. baumannii [5]; linezolid 64 μg/ml (Conc./MIC 1/4)
  Peptide MIC during treatment with linezolid: 4 µg/mL
A. baumannii [5]; linezolid […] (Conc./MIC 1)
  Peptide MIC during treatment with linezolid: 0 µg/mL
A. baumannii [5]; linezolid […] (Conc./MIC 1/2)
  Peptide MIC during treatment with linezolid: 1 µg/mL
A. baumannii [5]; [9]
  Peptide MIC during treatment with vancomycin: 0.25 µg/mL
A. baumannii [5]; [10]
  Peptide MIC during treatment with vancomycin: 0 µg/mL
A. baumannii [5]; vancomycin […] (Conc./MIC 1/4)
  Peptide MIC during treatment with vancomycin: 0.5 µg/mL
A. baumannii [5]; vancomycin […] (Conc./MIC 1/8)
  Peptide MIC during treatment with vancomycin: 4 µg/mL
MDRAB 12035 [6]; [27]
  Peptide MIC during treatment with erythromycin: 8 µg/mL
MDRAB 12035 [6]; [28]
  Peptide MIC during treatment with erythromycin: 8 µg/mL
MDRAB 12035 [6]; [29]
  Peptide MIC during treatment with erythromycin: 4 µg/mL
MDRAB 12035 [6]; [30]
  Peptide MIC during treatment with erythromycin: 0 µg/mL
MDRAB 12035 [6]; [7]
  Peptide MIC during treatment with linezolid: 4 µg/mL
MDRAB 12035 [6]; [8]
  Peptide MIC during treatment with linezolid: 0 µg/mL
MDRAB 12035 [6]; linezolid […] (Conc./MIC 1/2)
  Peptide MIC during treatment with linezolid: 1 µg/mL
MDRAB 12035 [6]; linezolid […] (Conc./MIC 1/4)
  Peptide MIC during treatment with linezolid: 4 µg/mL
MDRAB 12035 [6]; [9]
  Peptide MIC during treatment with vancomycin: 2 µg/mL
MDRAB 12035 [6]; [10]
  Peptide MIC during treatment with vancomycin: 1 µg/mL
MDRAB 12035 [6]; vancomycin […] (Conc./MIC 1/4)
  Peptide MIC during treatment with vancomycin: 4 µg/mL
MDRAB 12035 [6]; vancomycin […] (Conc./MIC 1/8)
  Peptide MIC during treatment with vancomycin: 4 µg/mL

— US11214594B2, “Antimicrobial peptide having synergistic antibacterial effect with antibiotics on multidrug resistant bacteria, and use thereof” (priority 2016, dated 2022)
